From BindingDB's records for doi:10.1016/j.ejmech.2016.05.049 (University of Naples Federico Ii, 2016)
Residues, ends and D or L forms follow the SMILES beside them. *: point of attachment. Cbz = O=C(OCc1ccccc1)*

Assay: Competitive inhibition of post-glutamyl peptide hydrolyzing activity of human 20S proteasome using Cbz-Leu-Leu-Glu-AMC as substrate measured for 10 mins by fluorescence assay

SMILES	Ki
CC(C)CC(NC(=O)C(CO)NC(=O)OCc1ccccc1)C(=O)NC(Cc1ccc(O)cc1)C(N)=O (stereo not drawn) (Cbz-Ser-Leu-Tyr-NH2; configuration not given here)	8.59 µM
COC(=O)[C@H](Cc1ccc(O)cc1)NC(=O)[C@H](CC(C)C)NC(=O)[C@H](CO)NC(=O)OCc1ccccc1 (Cbz-Ser-Leu-Tyr-OMe)	31.3 µM
